# According to patent US8252822B2, “Heterocyclic compounds and uses as anticancer agents” (Acea Biosciences, Inc., priority 2007, dated 2012):
# Read-outs that look alike come from different tables or passages of the source.
# Columns and labels:
# [1] = system: MCF7; test: RT-CES cell proliferation inhibition, MCF7; format: cell-based; settings: Homo sapiens
# Excerpt: (§1) The biological activity of compounds disclosed herein was monitored and profiled using the Real-Time Cell Electronic Sensing (RT-CES®) system from ACEA Biosciences, Inc. The RT-CES system utilizes cell-substrate impedance technology to monitor cellular behavior inside tissue culture wells in a microtiter plate format. The technology features in the integration of molecular and cell biology with microelectronics and is based on the electronic detection of biological assay process. The details of this cell electronic sensing technology and associated devices, systems and methods of use as described in U.S. provisional application No. 60/379,749, filed on Jul. […]
# (§2) For measurement of cell-substrate or cell-electrode impedance using RT-CES technology, microelectrodes having appropriate geometries are fabricated onto the bottom surfaces of microtiter plate or similar device, facing into the wells. […] When there are changes to the biological status of the cells analogue electronic readout signals are measured automatically and in real time, and are converted to digital signals for processing and for analysis. In a RT-CES system, a cell index (arbitrary representation of change in impedance) is automatically derived and provided based on measured electrode impedance values. […]
# (§3) To quantify cell status based on the measured cell-electrode impedance, a parameter termed Cell Index is derived. […]
# [2] = system: SKOV3; test: RT-CES cell proliferation inhibition, SKOV3; format: cell-based; settings: Homo sapiens, SK-OV-3
# Excerpt: as §1, §2, §3
# [3] = system: Hela; test: RT-CES cell proliferation inhibition, Hela; format: cell-based; settings: Homo sapiens
# Excerpt: as §1, §2, §3
# [4] = system: Bcap37; test: RT-CES cell proliferation inhibition, Bcap37; format: cell-based; settings: Homo sapiens
# Excerpt: as §1, §2, §3
# [5] = system: S180 sarcoma; test: Anti-tumor activity against S180 bearing mouse model; format: in vivo, ICR mice; settings: for Inhibition Rate (%) / Tumor Weight: qd for 9 days; for Body Weight (g) Start: mouse, in vivo
# Method: ACEA100160 (2-(4-ethoxyphenyl)amino-4-(6-methylimidazo[1,2-a]pyrimidin-3-yl)thiazole) and ACEA 100162 (2-(4-ethoxyphenyl)amino-4-(6-methylimidazo[2,1-b]thiazol-5-yl)thiazole) are prepared at concentration of 8 mg/ml in solution containing 20% HP-beta-CD dextrose (D5W). The solvent HP-beta-CD solution is used as a vehicle negative control.
# ICR mice, male, 21.4±1.5 g
# S180 sarcoma: murine cancer cell line S180.
# The malignant ascites model of ICR mouse was induced by S180 cells.
# Under a sterilized condition, sacrifice the ICR murine S180 bearing mice, take out of the ascites and dilute with NS to certain cell numbers. Inject 0.2 ml cell suspension (10^6 cells) subcutaneously into the left flank on ICR mice. On the first treatment day before iv or ip, implanted animals are randomly divided into ten groups as following. The drugs were administrated in the schedule of Table 11 respectively. The solvent HP-beta-CD solution is used as a vehicle negative control. Observe clinical signs at least daily.
# Tumor weight was recorded. The tumor inhibitory rate was calculated as follows: inhibitory rate=1-Wt/W0, where Wt is the average weight of each drug treatment group and W0 is the average weight of negative control group. Results are given as mean±SD values from n animals. Comparisons between groups were made with Student's two-tailed t test and a P<0.05 was considered significant.
# [6] = system: a number of cancer cell lines (MCF7adr, PC3, KB, KB200, Bcap37); test: RT-CES time-dependent cell index, a number of cancer cell lines (FIG. 10, 11); format: cell-based, human; settings: various concentrations
# Excerpt: as §1, §2, §3
compound,measurement,setting,value
"Br.CCOc1ccc(Nc2nc(-c3c(C)nc4sccn34)cs2)cc1 [Compound 27, 2-(4-ethoxyphenyl)amino-4-(6-methylimidazo[2,1-b]thiazol-5-yl)thiazole]",IC50,"[1]; MCF7, 24 hrs, read-out: IC50 (24 hr)",> 200 nM
same,IC50,"[1]; MCF7, 48 hrs, read-out: IC50 (48 hr)",> 200 nM
same,IC50,"[2]; SKOV3, 24 hrs, read-out: IC50 (24 hr)",19.8 nM
same,IC50,"[2]; SKOV3, 48 hrs, read-out: IC50 (48 hr)",11.5 nM
same,IC50,"[3]; 24 hrs, read-out: IC50 (24 hr)",5.85 nM
same,IC50,"[3]; 48 hrs, read-out: IC50 (48 hr)",6.95 nM
same,IC50,"[4]; Bcap37, 24 hrs, read-out: IC50 (24 hr)",27.3 nM
same,IC50,"[4]; Bcap37, 48 hrs, read-out: IC50 (48 hr)",26 nM
same,Inhibition Rate (%),"[5]; S180, IP, 40 mg/kg",59.3%
same,Tumor Weight,"[5]; S180, IP, 40 mg/kg",0.61 ± 0.21 g
same,Inhibition Rate (%),"[5]; S180, IP, 80 mg/kg",77.2%
same,Tumor Weight,"[5]; S180, IP, 80 mg/kg",0.34 ± 0.16 g
same,Inhibition Rate (%),"[5]; S180, IV, 40 mg/kg",60.7%
same,Tumor Weight,"[5]; S180, IV, 40 mg/kg",0.59 ± 0.24 g
same,Body Weight (g) Start,"[5]; ip, 40 mg/kg",20.6 ± 0.4 g
same,Body Weight (g) Start,"[5]; ip, 80 mg/kg",21.8 ± 1.5 g
same,Body Weight (g) Start,"[5]; iv, 40 mg/kg",21.0 ± 0.4 g
same,inhibitory effect on the proliferation of a number of cancer cell lines,[6],exhibited inhibitory effect on the proliferation of a number of cancer cell lines
